Where “and” joins values, the source holds several entries; their conditions need not be identical. Equal values may be shown once. Read-outs that look alike come from different tables or passages of the source. Marks after values point to notes of the source that are not given here.
Experiments:
[1] = n-octanol-water partition coefficient, shake flask method; conditions: for Log P (n-octanol-water partition coefficient): shake flask, 25 °C
[2] = In vitro skin permeation, Franz diffusion cells; conditions: for Q%24 h, the percentage of the applied dose permeated after 24 h / Cumulative Permeation Mass / LT, lag time: n = 3; for Q%24 h, the percentage of the applied dose permeated after 24 h / Cumulative Permeation Mass: 24 h; for EF, enhancement factor: relative to IBU; for JSS, steady-state flux: saturated solution in PBS pH 7.4, n = 3
[3] = 37 °C, cited from earlier work
[4] = design: method as in PMID 35516534; conditions: determined log P range; cited from earlier work
[5] = Thermal stability (TG/DTG): decomposition onset and maximum mass-loss rate temperature
Procedure: In Figure 5, the thermal stability of ibuprofen and amino acid isopropyl ester ibuprofenates was determined and compared. All TG, DTG, and c-DTA curves are in the Supplementary Materials (Figures S87–S100). The decomposition onset temperature (Tonset) and the temperature of the maximum rate of mass loss (Tmax) were determined.

[6] = pH 7.4
[7] = 24 h penetration, n = 3
[8] = Solubility (saturation concentration) in deionised water and PBS pH 7.4, HPLC; conditions: for Solubility in Phosphate Buffer pH = 7.4: PBS pH 7.4, 32 °C; for Solubility in Water: 25 °C
[9] = Solubility in organic solvents by modified Vogel's method; conditions: 25 °C
[10] = shake flask; cited from earlier work
[11] = cited from earlier work; for Solubility in Phosphate Buffer pH = 7.4: PBS pH 7.4, 32 °C; for Solubility in Water: 25 °C
[12] = 25 °C; cited from earlier work
[13] = saturated solution in PBS pH 7.4, mass of compound
[14] = saturated solution in PBS pH 7.4, mass of ibuprofen

Row | SMILES | Q%24 h, the percentage of the applied dose permeated after 24 h [2] [%] | Cumulative Permeation Mass [2, 13] | Cumulative Permeation Mass [2, 14] | LT, lag time [2] [h] | EF, enhancement factor [2] | JSS, steady-state flux [2] | Tonset, the onset temperature of the thermal degradation [5] [°C] | Log P (n-octanol-water partition coefficient) [1] | Accumulation in the skin [7] [µg IBU g^−1] | Solubility in Phosphate Buffer pH = 7.4 ([8]; g of active compound (IBU)) [g IBU∙dm^−3] | Solubility in Phosphate Buffer pH = 7.4 ([8]; g of compound) [g∙dm^−3] | Solubility in Water ([8]; g of active compound (IBU)) [g IBU∙dm^−3] | Solubility in Water ([8]; g of compound) [g∙dm^−3] | Solubility in DMSO [9] | Solubility in chloroform [9] | Solubility in dichloromethane [9] | Solubility in diethyl ether [9] | Solubility in ethanol [9] | Solubility in ethyl acetate [9] | Solubility in n-hexane [9] | other results
1 | CC(C)Cc1ccc(C(C)C(=O)O)cc1 (racemic) [IBU, (RS)-2-(4-(2-methylpropyl)phenyl)propanoic acid, reference compound] | 7.408 ± 0.648 | 32.001 ± 3.167 ^a µg·cm^−2 | 32.001 ± 2.801 ^a µg IBU·cm^−2 | 1.399 ± 0.145 | 1.00 | 3.017 ± 0.209 µg IBU cm^−2 h^−1 | – | – | – | – | – | – | – | – | – | – | – | – | – | – | logP at 3 h ([1]; n-octanol/water): 3.208 ± 0.002; Papp ([2]; pig, pH 7.4): 1.94 ×10⁻⁶ cm/s; JSS, steady-state flux ([2]; listed as ibuprofen): 3.017 µg IBU cm^−2 h^−1; solubility ([3]; pH 1): 0.038 mg·cm^−3; solubility ([3]; pH 4.5): 0.084 mg·cm^−3; solubility ([3]; pH 5.5): 0.685 mg·cm^−3; solubility ([3]; pH 6.8): 3.37 mg·cm^−3; log P [4]: 2.41–4.00; Tonset, the onset temperature of the thermal degradation ([5]; TG): 189.8 °C
2 | CC(C)Cc1ccc(C(C)C(=O)O)cc1.CSCC[C@H](N)C(=O)OC(C)C [[L-MetOiPr][IBU], L-methionine isopropyl ester ibuprofenate] | – | – | – | – | – | – | 146.2 | – | – | – | – | – | – | – | – | – | – | – | – | – | JSS, steady-state flux [6]: 25.312 ± 0.661 µg IBU cm^−2 h^−1
3 | CC(C)Cc1ccc(C(C)C(=O)O)cc1.CC(C)OC(=O)C[C@H](N)C(=O)OC(C)C [[L-Asp(OiPr)2][IBU], L-aspartic acid isopropyl ester ibuprofenate] | 27.307 ± 2.851 | 812.658 ± 12.545 ^b µg·cm^−2 | 395.800 ± 41.320 ^b µg IBU·cm^−2 | 1.010 ± 0.054 | 3.69 | 55.063 ± 1.425 µg IBU cm^−2 h^−1 | 141.7 | 1.506 ± 0.001 | 406.961 ± 17.799 | 1.449 ± 0.009 | 2.976 ± 0.018 | 1.159 ± 0.001 | 2.380 ± 0.003 | + (soluble >100 mg cm^−3) | + (soluble >100 mg cm^−3) | + (soluble >100 mg cm^−3) | +/− (partially soluble 33–100 mg cm^−3) | + (soluble >100 mg cm^−3) | + (soluble >100 mg cm^−3) | − (insoluble <33 mg cm^−3) | Solubility in toluene [9]: + (soluble >100 mg cm^−3)
4 | CC(C)Cc1ccc(C(C)C(=O)O)cc1.CC(C)OC(=O)[C@@H](N)C(C)C [[L-ValOiPr][IBU], L-valine isopropyl ester ibuprofenate] | 13.698 ± 1.123 | 684.642 ± 56.109 ^b µg·cm^−2 | 386.391 ± 31.666 ^b µg IBU·cm^−2 | – | 1.85 | 43.749 ± 2.445 µg IBU cm^−2 h^−1 | – | – | – | – | – | – | – | – | – | – | – | – | – | – | Log P (n-octanol-water partition coefficient) [10]: 1.154 ± 0.004 [31]; Solubility in Phosphate Buffer pH = 7.4 ([11]; g of active compound (IBU)): 2.821 ± 0.018 [31] g IBU∙dm^−3; Solubility in Phosphate Buffer pH = 7.4 ([11]; g of compound): 4.998 ± 0.018 [31] g∙dm^−3; Solubility in Water ([11]; g of active compound (IBU)): 1.957 ± 0.007 [31] g IBU∙dm^−3; Solubility in Water ([11]; g of compound): 3.468 ± 0.007 [31] g∙dm^−3; Solubility in DMSO [12]: + [31] (soluble >100 mg cm^−3); Solubility in chloroform [12]: + [31] (soluble >100 mg cm^−3); Solubility in dichloromethane [12]: + [31] (soluble >100 mg cm^−3); Solubility in diethyl ether [12]: +/− [31] (partially soluble 33–100 mg cm^−3); Solubility in ethanol [12]: + [31] (soluble >100 mg cm^−3); Solubility in ethyl acetate [12]: +/− [31] (partially soluble 33–100 mg cm^−3); Solubility in n-hexane [12]: − [31] (insoluble <33 mg cm^−3); Solubility in toluene [12]: + [31] (soluble >100 mg cm^−3)
5 | CC(C)Cc1ccc(C(C)C(=O)O)cc1.CC[C@H](C)[C@H](N)C(=O)OC(C)C [[L-IleOiPr][IBU], L-isoleucine isopropyl ester ibuprofenate] | 2.318 ± 0.118 | 173.888 ± 8.815 ^b µg·cm^−2 | 94.512 ± 4.791 ^b µg IBU·cm^−2 | 1.617 ± 0.057 | 0.31 | 9.545 µg IBU cm^−2 h^−1 and 9.545 ± 0.239 µg IBU cm^−2 h^−1 | 105.2 | 1.652 ± 0.008 | 646.293 ± 123.070 | 2.562 ± 0.010 | 4.713 ± 0.018 | 1.483 ± 0.098 | 2.729 ± 0.180 | + (soluble >100 mg cm^−3) | + (soluble >100 mg cm^−3) | + (soluble >100 mg cm^−3) | +/− (partially soluble 33–100 mg cm^−3) | + (soluble >100 mg cm^−3) | + (soluble >100 mg cm^−3) | − (insoluble <33 mg cm^−3) | Solubility in toluene [9]: + (soluble >100 mg cm^−3)
